How the values were obtained:
Assay type in all cases: functional
[1] = tested on: Streptococcus constellatus; test: Antimicrobial activity against invasive Streptococcus constellatus obtained from non-cystic fibrosis patient assessed as non-susceptible isolates grown on mueller-Hinton blood agar at 30 ug/ml after 24 hrs at 37 degC by disk diffusion method in presence of 5% defribinated sheep blood
Streptococcus anginosus [2] = test: Antimicrobial activity against invasive Streptococcus anginosus obtained from non-cystic fibrosis patient assessed as non-susceptible isolates grown on mueller-Hinton blood agar at 30 ug/ml after 24 hrs at 37 degC by disk diffusion method in presence of 5% defribinated sheep blood
[3] = tested on: Streptococcus constellatus; test: Antimicrobial activity against Streptococcus constellatus obtained from patient with cystic fibrosis assessed as non-susceptible isolates grown on mueller-Hinton blood agar at 30 ug/ml after 24 hrs at 37 degC by disk diffusion method in presence of 5% defribinated sheep blood
[4] = tested on: Streptococcus intermedius; test: Antimicrobial activity against invasive Streptococcus intermedius obtained from non-cystic fibrosis patient assessed as non-susceptible isolates grown on mueller-Hinton blood agar at 30 ug/ml after 24 hrs at 37 degC by disk diffusion method in presence of 5% defribinated sheep blood
[5] = tested on: Streptococcus intermedius; test: Antimicrobial activity against Streptococcus intermedius obtained from patient with cystic fibrosis assessed as non-susceptible isolates grown on mueller-Hinton blood agar at 30 ug/ml after 24 hrs at 37 degC by disk diffusion method in presence of 5% defribinated sheep blood
Streptococcus anginosus [6] = test: Antimicrobial activity against Streptococcus anginosus obtained from patient with cystic fibrosis assessed as non-susceptible isolates grown on mueller-Hinton blood agar at 30 ug/ml after 24 hrs at 37 degC by disk diffusion method in presence of 5% defribinated sheep blood
Streptococcus anginosus [7] = test: Antimicrobial activity against invasive Streptococcus anginosus obtained from non-cystic fibrosis patient assessed as non-susceptible isolates grown on brain heart infusion agar at 30 ug/ml after 24 hrs at 37 degC by disk diffusion method
[8] = tested on: Streptococcus constellatus; test: Antimicrobial activity against invasive Streptococcus constellatus obtained from non-cystic fibrosis patient assessed as non-susceptible isolates grown on brain heart infusion agar at 30 ug/ml after 24 hrs at 37 degC by disk diffusion method
Streptococcus anginosus [9] = test: Antimicrobial activity against Streptococcus anginosus obtained from patient with cystic fibrosis assessed as non-susceptible isolates grown on brain heart infusion agar at 30 ug/ml after 24 hrs at 37 degC by disk diffusion method
[10] = tested on: Streptococcus intermedius; test: Antimicrobial activity against invasive Streptococcus intermedius obtained from non-cystic fibrosis patient assessed as non-susceptible isolates grown on brain heart infusion agar at 30 ug/ml after 24 hrs at 37 degC by disk diffusion method
[11] = tested on: Streptococcus constellatus; test: Antimicrobial activity against Streptococcus constellatus obtained from patient with cystic fibrosis assessed as non-susceptible isolates grown on brain heart infusion agar at 30 ug/ml after 24 hrs at 37 degC by disk diffusion method
[12] = tested on: Streptococcus intermedius; test: Antimicrobial activity against Streptococcus intermedius obtained from patient with cystic fibrosis assessed as non-susceptible isolates grown on brain heart infusion agar at 30 ug/ml after 24 hrs at 37 degC by disk diffusion method
Streptococcus anginosus [13] = test: Antimicrobial activity against Streptococcus anginosus obtained from patient with cystic fibrosis assessed as non-susceptible isolates grown on mueller-Hinton blood agar at 15 ug/ml after 24 hrs at 37 degC by disk diffusion method in presence of 5% defribinated sheep blood
[14] = tested on: Streptococcus constellatus; test: Antimicrobial activity against invasive Streptococcus constellatus obtained from non-cystic fibrosis patient assessed as non-susceptible isolates grown on mueller-Hinton blood agar at 15 ug/ml after 24 hrs at 37 degC by disk diffusion method in presence of 5% defribinated sheep blood
[15] = tested on: Streptococcus intermedius; test: Antimicrobial activity against invasive Streptococcus intermedius obtained from non-cystic fibrosis patient assessed as non-susceptible isolates grown on mueller-Hinton blood agar at 15 ug/ml after 24 hrs at 37 degC by disk diffusion method in presence of 5% defribinated sheep blood
Streptococcus anginosus [16] = test: Antimicrobial activity against invasive Streptococcus anginosus obtained from non-cystic fibrosis patient assessed as non-susceptible isolates grown on mueller-Hinton blood agar at 15 ug/ml after 24 hrs at 37 degC by disk diffusion method in presence of 5% defribinated sheep blood
Streptococcus anginosus [17] = test: Antimicrobial activity against Streptococcus anginosus obtained from patient with cystic fibrosis assessed as non-susceptible isolates grown on brain heart infusion agar at 15 ug/ml after 24 hrs at 37 degC by disk diffusion method
[18] = tested on: Streptococcus constellatus; test: Antimicrobial activity against invasive Streptococcus constellatus obtained from non-cystic fibrosis patient assessed as non-susceptible isolates grown on brain heart infusion agar at 15 ug/ml after 24 hrs at 37 degC by disk diffusion method
Streptococcus anginosus [19] = test: Antimicrobial activity against invasive Streptococcus anginosus obtained from non-cystic fibrosis patient assessed as non-susceptible isolates grown on brain heart infusion agar at 15 ug/ml after 24 hrs at 37 degC by disk diffusion method
[20] = tested on: Streptococcus intermedius; test: Antimicrobial activity against Streptococcus intermedius obtained from patient with cystic fibrosis assessed as non-susceptible isolates grown on mueller-Hinton blood agar at 15 ug/ml after 24 hrs at 37 degC by disk diffusion method in presence of 5% defribinated sheep blood
[21] = tested on: Streptococcus intermedius; test: Antimicrobial activity against invasive Streptococcus intermedius obtained from non-cystic fibrosis patient assessed as non-susceptible isolates grown on brain heart infusion agar at 15 ug/ml after 24 hrs at 37 degC by disk diffusion method
[22] = tested on: Streptococcus constellatus; test: Antimicrobial activity against Streptococcus constellatus obtained from patient with cystic fibrosis assessed as non-susceptible isolates grown on brain heart infusion agar at 15 ug/ml after 24 hrs at 37 degC by disk diffusion method
[23] = tested on: Streptococcus constellatus; test: Antimicrobial activity against Streptococcus constellatus obtained from patient with cystic fibrosis assessed as non-susceptible isolates grown on mueller-Hinton blood agar at 15 ug/ml after 24 hrs at 37 degC by disk diffusion method in presence of 5% defribinated sheep blood
[24] = tested on: Streptococcus intermedius; test: Antimicrobial activity against Streptococcus intermedius obtained from patient with cystic fibrosis assessed as non-susceptible isolates grown on brain heart infusion agar at 15 ug/ml after 24 hrs at 37 degC by disk diffusion method
[25] = tested on: Streptococcus intermedius; test: Antimicrobial activity against invasive Streptococcus intermedius obtained from non-cystic fibrosis patient assessed as non-susceptible isolates grown on brain heart infusion agar at 2 ug/ml after 24 hrs at 37 degC by disk diffusion method; conditions: at 2 µg/mL
Streptococcus anginosus [26] = test: Antimicrobial activity against invasive Streptococcus anginosus obtained from non-cystic fibrosis patient assessed as non-susceptible isolates grown on mueller-Hinton blood agar at 2 ug/ml after 24 hrs at 37 degC by disk diffusion method in presence of 5% defribinated sheep blood
Streptococcus anginosus [27] = test: Antimicrobial activity against Streptococcus anginosus obtained from patient with cystic fibrosis assessed as non-susceptible isolates grown on mueller-Hinton blood agar at 2 ug/ml after 24 hrs at 37 degC by disk diffusion method in presence of 5% defribinated sheep blood
Streptococcus anginosus [28] = test: Antimicrobial activity against Streptococcus anginosus obtained from patient with cystic fibrosis assessed as non-susceptible isolates grown on brain heart infusion agar at 2 ug/ml after 24 hrs at 37 degC by disk diffusion method; conditions: at 2 µg/mL
[29] = tested on: Streptococcus constellatus; test: Antimicrobial activity against Streptococcus constellatus obtained from patient with cystic fibrosis assessed as non-susceptible isolates grown on brain heart infusion agar at 2 ug/ml after 24 hrs at 37 degC by disk diffusion method; conditions: at 2 µg/mL
[30] = tested on: Streptococcus constellatus; test: Antimicrobial activity against invasive Streptococcus constellatus obtained from non-cystic fibrosis patient assessed as non-susceptible isolates grown on mueller-Hinton blood agar at 2 ug/ml after 24 hrs at 37 degC by disk diffusion method in presence of 5% defribinated sheep blood
[31] = tested on: Streptococcus intermedius; test: Antimicrobial activity against Streptococcus intermedius obtained from patient with cystic fibrosis assessed as non-susceptible isolates grown on brain heart infusion agar at 2 ug/ml after 24 hrs at 37 degC by disk diffusion method; conditions: at 2 µg/mL
[32] = tested on: Streptococcus intermedius; test: Antimicrobial activity against invasive Streptococcus intermedius obtained from non-cystic fibrosis patient assessed as non-susceptible isolates grown on mueller-Hinton blood agar at 2 ug/ml after 24 hrs at 37 degC by disk diffusion method in presence of 5% defribinated sheep blood
[33] = tested on: Streptococcus intermedius; test: Antimicrobial activity against Streptococcus intermedius obtained from patient with cystic fibrosis assessed as non-susceptible isolates grown on mueller-Hinton blood agar at 2 ug/ml after 24 hrs at 37 degC by disk diffusion method in presence of 5% defribinated sheep blood
[34] = tested on: Streptococcus constellatus; test: Antimicrobial activity against invasive Streptococcus constellatus obtained from non-cystic fibrosis patient assessed as non-susceptible isolates grown on brain heart infusion agar at 2 ug/ml after 24 hrs at 37 degC by disk diffusion method; conditions: at 2 µg/mL
Streptococcus anginosus [35] = test: Antimicrobial activity against invasive Streptococcus anginosus obtained from non-cystic fibrosis patient assessed as non-susceptible isolates grown on brain heart infusion agar at 2 ug/ml after 24 hrs at 37 degC by disk diffusion method; conditions: at 2 µg/mL
[36] = tested on: Streptococcus constellatus; test: Antimicrobial activity against Streptococcus constellatus obtained from patient with cystic fibrosis assessed as non-susceptible isolates grown on mueller-Hinton blood agar at 2 ug/ml after 24 hrs at 37 degC by disk diffusion method in presence of 5% defribinated sheep blood

SMILES | Activity [1] [%] | Activity (Streptococcus anginosus [2]) [%] | Activity [3] [%] | Activity [4] [%] | Activity [5] [%] | Activity (Streptococcus anginosus [6]) [%] | Activity (Streptococcus anginosus [13]) [%] | Activity [14] [%] | Activity [15] [%] | Activity (Streptococcus anginosus [16]) [%] | Activity (Streptococcus anginosus [17]) [%] | Activity [18] [%] | Activity (Streptococcus anginosus [19]) [%] | Activity [20] [%] | Activity [21] [%] | Activity [22] [%] | Activity [23] [%] | Activity [24] [%] | other results
CO/N=C(\C(=O)N[C@@H]1C(=O)N2C(C(=O)O)=C(CSc3nc(=O)c(O)nn3C)CS[C@H]12)c1csc(N)n1 [CEFTRIAXONE] | 0 | 0 | 0 | 0 | 0 | 0 | – | – | – | – | – | – | – | – | – | – | – | – | –
CO/N=C(\C(=O)N[C@@H]1C(=O)N2C(C(=O)[O-])=C(C[N+]3(C)CCCC3)CS[C@H]12)c1csc(N)n1 | 0 | 0 | 0 | 0 | 0 | 2.5 | – | – | – | – | – | – | – | – | – | – | – | – | Activity (Streptococcus anginosus [7]): 0%; Activity [8]: 0%; Activity (Streptococcus anginosus [9]): 0%; Activity [10]: 0%; Activity [11]: 0%; Activity [12]: 3.1%
CC[C@H]1OC(=O)[C@H](C)[C@@H](O[C@H]2C[C@@](C)(OC)[C@@H](O)[C@H](C)O2)[C@H](C)[C@@H](O[C@@H]2O[C@H](C)C[C@H](N(C)C)[C@H]2O)[C@](C)(O)C[C@@H](C)C(=O)[C@H](C)[C@@H](O)[C@]1(C)O [ERYTHROMYCIN] | – | – | – | – | – | – | 57.5 | 0 | 28.6 | 11.1 | 52.2 | 7.7 | 11.1 | 50 | 16.7 | 65 | 20 | 34.4 | –
CN(C)[C@@H]1C(O)=C(C(N)=O)C(=O)[C@@]2(O)C(O)=C3C(=O)c4c(O)cccc4[C@@](C)(O)[C@H]3C[C@@H]12 [TETRACYCLINE] | 33.3 | – | 0 | 0 | 0 | 27.5 | – | – | – | – | – | – | – | – | – | – | – | – | –
CCC[C@@H]1C[C@@H](C(=O)N[C@@H]([C@H]2O[C@H](SC)[C@H](O)[C@@H](O)[C@H]2O)[C@H](C)Cl)N(C)C1 [CLINDAMYCIN] | – | – | – | – | – | – | – | – | – | – | – | – | – | – | – | – | – | – | Activity [25]: 12.5%; Activity (Streptococcus anginosus [26]): 0%; Activity (Streptococcus anginosus [27]): 52.5%; Activity (Streptococcus anginosus [28]): 56.5%; Activity [29]: 62.5%; Activity [30]: 0%; Activity [31]: 28.1%; Activity [32]: 28.6%; Activity [33]: 50%; Activity [34]: 0%; Activity (Streptococcus anginosus [35]): 0%; Activity [36]: 20%
CC[C@H]1OC(=O)[C@H](C)[C@@H](O[C@H]2C[C@@](C)(OC)[C@@H](O)[C@H](C)O2)[C@H](C)[C@@H](O[C@@H]2O[C@H](C)C[C@H](N(C)C)[C@H]2O)[C@](C)(O)C[C@@H](C)CN(C)[C@H](C)[C@@H](O)[C@]1(C)O [AZITHROMYCIN] | – | – | – | – | – | – | 60 | 0 | 28.6 | 11.1 | 56.5 | 7.7 | 0 | 50 | 16.7 | 65 | 20 | 34.4 | –

From ChEMBL document CHEMBL1629685, “Macrolide and clindamycin resistance in Streptococcus milleri group isolates from the airways of cystic fibrosis patients” (2010)
